What follows are molecules tested against T1, TRPV1 (VR1) (Rattus norvegicus, UniProt O35433) (assay: TRPV1 screening assay (FLIPR, Fluo-4 calcium), capsaicin stimulation). Conditions: FLIPR, HEK293-TetOFF-TRPV1, capsaicin 50 nM final; read-out: VR1 flipr CAPSAICIN IC50.
T1 construct: expressed in transfected cells; host or cells: HEK293-TetOFF, expression induced by withdrawing doxycycline
Type: cell-based
Description: • 1) Cell line: HEK293-Tet^OFF-TRPV1 • 2) Media: MEM (Invitrogen) • 3) 10% Tet-FBS (Clontech #8630-1) • 4) Fungizone (Gibe #15290-018 (100X)) • 5) Penn/Strep (Gibco #15140-122 (100X)) • 6) Geneticin (Gibco #10131-027 (100X)) • 7) Hygromycin (Clontech #8057-1) • 8) Doxycycline (Clontech #8634-1) • 9) Trypsin/EDTA (Gibco #25200-056) • 10) 100 mm cell culture plates (Falcon #3003) • 11) 96-well poly-D-lysine plates (Fisher #08-774-256) • 12) Hank's Balanced Salt Solution (HBSS) (GIBCO #14025-092) • 13) HEPES Buffer (GIBCO #15630-080) • 14) 30% BSA (Research Organics #1334A) • 15) Probenecid (Sigma P-8761) • 16) Fluo-4, AM (50 μg) (Molecular Probes F-23917) • 17) Pluronic F-127 20% (Molecular Probes P-3000). • 18) capsazepine (Sigma C-191) • 19) capsaicin (Sigma M-2028) • 20) compound plates (NUNC #442587) • 21) black pipet tips 96-well FLIPR (Robbins Scientific 1043-24-0) • 22) Additional reagents available from Fisher: methanol, DMSO, NaOH Reagent Preparation: 1) Cells: HEK293-Tet^OFF-TRPV11
• and Doxycycline 2.5 μg/mL final (from a 1000× stock in PBS) • Cells must be fed and/or split every 2-3 days (to maintain transcriptional repression with Doxycycline). • Must be split no more than 1:5 (50-75% confluency) to maintain growth and viability. • Grown on regular tissue culture plates (e.g Falcon 3003-100 mm) • Split cells via Trypsin/EDTA: incubate with trypsin at room temperature no longer than 5 minutes (HEK293 cells have a tendency to ball up if over trypsinized). • Two days prior to assay, the cells are split into 96-well plates in cell media in the absence of doxycycline at a concentration of 40,000 cells/well in a volume of 200 μL. 2) FLIPR buffer is prepared fresh:
Add 5 mL of Probenecid Solution, prepared as follows: 710 mg of probenecid (Sigma P-8761) is solubilized in 5 mL of 1N NaOH, 5 mL of above buffer is added for final volume of 10 mL. (of which 5 mL goes back into FLIPR buffer)
Combine 42 μL of dye mixture with 11 mL of FLIPR buffer/96-well plate.
Stock solution of 0.1 M capsaicin is prepared in MeOH (50 mg+1.6 mL MeOH). Store 50 μL aliquots at −80° C.
For assay: • a) Dilute stock by adding 0.8 μL into 1 mL of MeOH (final=80 uM). • b) Add 50 μL of diluted stock to 20 mL of FLIPR buffer (final=0.2 uM) • c) Agonist solution is added 150 μL/well to 96-well plate. • d) Final agonist concentration on cells will be 50 nM. […] Laser is adjusted upwards for an average signal≧10,000/well and less than 10% variability. 7) Compound addition conditions are as follows: • FLIPR setup (dual sequence parameters): • Sequence 1: • First interval 1 sec/60 counts • Second interval 6 sec/50 counts • Fluid addition=50 μL • Pipettor height 110 μL • Dispense Speed=30 μL/sec • Sequence 2: • Second interval 1 sec/60 counts • Second interval 6 sec/40 counts • Fluid addition=50 μL • Pipettor height=140 μL • Dispense Speed=50 μL/sec Data Analysis: • 1) Data from both additions is reported as Max-Min for each well

T1 sequence (O35433 whole entry): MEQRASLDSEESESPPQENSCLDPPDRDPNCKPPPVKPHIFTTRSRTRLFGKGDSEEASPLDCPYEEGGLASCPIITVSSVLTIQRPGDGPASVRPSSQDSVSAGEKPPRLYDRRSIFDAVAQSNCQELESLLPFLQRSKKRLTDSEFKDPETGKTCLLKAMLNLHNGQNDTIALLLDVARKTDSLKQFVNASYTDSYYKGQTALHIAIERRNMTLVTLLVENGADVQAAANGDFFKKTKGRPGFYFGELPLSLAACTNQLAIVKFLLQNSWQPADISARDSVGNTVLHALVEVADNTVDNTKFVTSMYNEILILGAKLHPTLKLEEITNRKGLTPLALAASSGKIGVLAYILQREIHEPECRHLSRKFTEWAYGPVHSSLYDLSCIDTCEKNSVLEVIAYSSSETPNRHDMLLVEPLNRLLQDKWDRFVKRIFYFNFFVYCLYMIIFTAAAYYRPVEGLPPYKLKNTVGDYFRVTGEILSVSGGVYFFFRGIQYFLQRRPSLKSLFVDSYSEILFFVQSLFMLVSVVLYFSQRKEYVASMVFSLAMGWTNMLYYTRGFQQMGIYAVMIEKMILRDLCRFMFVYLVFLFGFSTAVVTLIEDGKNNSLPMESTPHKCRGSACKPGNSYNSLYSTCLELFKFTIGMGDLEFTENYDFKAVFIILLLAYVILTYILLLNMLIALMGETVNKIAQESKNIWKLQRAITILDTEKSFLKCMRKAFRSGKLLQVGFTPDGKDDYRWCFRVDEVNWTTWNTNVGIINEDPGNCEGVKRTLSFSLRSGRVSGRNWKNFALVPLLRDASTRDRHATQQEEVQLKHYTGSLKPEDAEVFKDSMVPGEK

| SMILES | IC50 [µM] |
| --- | --- |
| CC(C)(C)c1ccc(NC(=O)N2CCC3(CC2)C(=O)N(c2ccccn2)C3c2ccccc2)cc1 (stereo not shown) | 0.001 |

Same assay, conditions: reference antagonist in reagent preparation; read-out: IC50 of competitive antagonist capsazepine

| SMILES | IC50 [µM] |
| --- | --- |
| Oc1cc2c(cc1O)CN(C(=S)NCCc1ccc(Cl)cc1)CCC2 [capsazepine, reference compound] | ~0.5 |

The molecules below were run against T2, human NPC1L1 (Homo sapiens, UniProt Q9UHC9) (assay: NPC1L1 binding assay (BODIPY-labeled glucuronidated ezetimibe competition), human). Conditions: HEK-293 cells expressing human NPC1L1, 4 hours at 37° C.
T2 construct: expressed in transfected cells; host or cells: HEK-293 (geneticin selection)
T2 sequence (Q9UHC9 22-1359): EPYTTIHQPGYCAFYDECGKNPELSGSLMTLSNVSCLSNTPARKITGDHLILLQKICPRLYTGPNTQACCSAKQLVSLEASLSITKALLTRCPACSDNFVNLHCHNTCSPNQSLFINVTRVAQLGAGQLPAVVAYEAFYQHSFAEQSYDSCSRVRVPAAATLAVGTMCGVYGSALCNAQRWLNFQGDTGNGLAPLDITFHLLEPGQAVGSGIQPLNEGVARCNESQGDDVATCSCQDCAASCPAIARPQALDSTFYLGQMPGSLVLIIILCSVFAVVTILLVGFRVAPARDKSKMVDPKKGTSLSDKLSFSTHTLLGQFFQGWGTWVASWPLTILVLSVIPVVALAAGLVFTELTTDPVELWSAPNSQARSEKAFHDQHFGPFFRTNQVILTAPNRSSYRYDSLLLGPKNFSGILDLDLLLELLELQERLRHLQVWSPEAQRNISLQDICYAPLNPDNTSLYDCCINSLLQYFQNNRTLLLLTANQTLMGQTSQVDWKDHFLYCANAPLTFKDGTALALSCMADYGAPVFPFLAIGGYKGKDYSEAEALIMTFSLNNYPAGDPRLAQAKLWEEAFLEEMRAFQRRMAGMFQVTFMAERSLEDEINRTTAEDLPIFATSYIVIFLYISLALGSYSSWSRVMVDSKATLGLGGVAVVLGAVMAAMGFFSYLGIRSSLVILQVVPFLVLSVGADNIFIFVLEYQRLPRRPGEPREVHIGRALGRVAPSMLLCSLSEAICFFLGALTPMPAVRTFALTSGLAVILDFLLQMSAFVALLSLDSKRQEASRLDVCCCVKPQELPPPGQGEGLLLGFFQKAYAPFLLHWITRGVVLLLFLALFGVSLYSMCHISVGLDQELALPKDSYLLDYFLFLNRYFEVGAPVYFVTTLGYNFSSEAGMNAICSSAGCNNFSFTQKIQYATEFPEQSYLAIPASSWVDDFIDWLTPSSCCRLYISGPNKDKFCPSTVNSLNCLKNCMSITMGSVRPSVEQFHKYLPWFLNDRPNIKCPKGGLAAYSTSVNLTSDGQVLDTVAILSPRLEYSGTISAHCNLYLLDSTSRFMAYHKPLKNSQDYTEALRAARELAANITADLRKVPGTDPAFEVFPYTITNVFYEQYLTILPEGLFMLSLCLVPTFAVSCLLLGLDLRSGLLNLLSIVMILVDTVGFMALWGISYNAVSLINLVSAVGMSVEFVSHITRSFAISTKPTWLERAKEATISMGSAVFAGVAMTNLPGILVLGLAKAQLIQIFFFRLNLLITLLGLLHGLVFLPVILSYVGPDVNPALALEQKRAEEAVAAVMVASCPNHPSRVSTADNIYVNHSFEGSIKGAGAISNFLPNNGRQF
Protocol: HEK-293 cells expressing human NPC1L1 were plated into 384-well black/clear plates (BD Biosciences, Bedford Mass.) for binding experiments the following day. Cell growth media (DMEM, 10% fetal calf serum, 1 mg/mL geneticin, 100 Units/mL penicillin) was aspirated. Cell growth media ([…]) containing 250 nM BODIPY-labeled glucuronidated ezetimibe was added to each well. Cell growth media ([…]) containing the indicated concentration of compound was then added to the wells. Unlabeled glucuronidated ezetimibe ([…]) was used to determine nonspecific binding. The binding reaction was allowed to proceed for 4 hours at 37° C. Subsequently the cell growth media was aspirated and the cells washed once with PBS. The remaining fluorescent labeled glucuronidated ezetimibe bound to the cells was quantified using a FlexStation plate reader (Molecular Devices, Sunnyvale Calif.) to measure fluorescence intensity. Ki values were determined from competition binding curves (n=4 for each point) using Prism and Activity Base software.

| SMILES | Ki [µM] |
| --- | --- |
| O=C(NC1CCCC1)N1CCC2(CC1)C(=O)N(c1ccccc1)C2c1ccccc1 (stereo not shown) | 31.2 |
| O=C(NCc1cccc(F)c1)N1CCC2(CC1)C(=O)N(c1ccccc1)C2c1ccccc1 (stereo not shown) | 26 |
| O=C(Nc1ccccc1Cl)N1CCC2(CC1)C(=O)N(c1ccccc1)C2c1ccccc1 (stereo not shown) | 8.64 |
| O=C(NCc1ccccc1Cl)N1CCC2(CC1)C(=O)N(c1ccccc1)C2c1ccccc1 (stereo not shown) | 17.6 |
| O=C(NC1CCCCC1)N1CCC2(CC1)C(=O)N(c1ccccc1)C2c1ccccc1 (stereo not shown) | 19.7 |

What follows are molecules tested against T3, human-SP9215 (GPR119) (Homo sapiens, UniProt Q8TDV5) (assay: GPR119 screening assay (LANCE cAMP, HEK 293 Human clone 3)). Conditions: HEK 293 Human clone 3, LANCE cAMP; read-out: GPR119 cAMP IC5O.
T3 construct: expressed in transfected cells
T3 sequence (Q8TDV5 1-335): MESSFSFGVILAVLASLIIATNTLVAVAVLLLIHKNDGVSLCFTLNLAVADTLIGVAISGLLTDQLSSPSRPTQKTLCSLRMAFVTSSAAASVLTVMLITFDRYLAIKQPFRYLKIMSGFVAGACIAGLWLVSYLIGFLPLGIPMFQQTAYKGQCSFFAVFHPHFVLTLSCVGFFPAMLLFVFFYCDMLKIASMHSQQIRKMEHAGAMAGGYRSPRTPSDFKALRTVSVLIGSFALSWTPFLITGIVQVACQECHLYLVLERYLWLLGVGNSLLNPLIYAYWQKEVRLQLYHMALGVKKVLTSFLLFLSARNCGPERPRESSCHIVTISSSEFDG
Type: cell-based
Protocol: • +100 mg BSA (MP Biomedicals faction V, #103703)=0.1% • +500 μL 1M HEPES (Cellgro #25-060-Cl)=5 mM • +75 μL RO-20 (Sigma B8279; 20 mM stock in DMSO stored in aliquots at −20° C.)=15 μM • (made fresh daily) B84 (N-[4-(methylsulfonyl)phenyl]-5-nitro-6-[4-(phenylthio)-1-piperidinyl]-4-pyrimidinamine, see WO 2004/065380): A 10 mM stock solution of the test compound in DMSO was prepared, aliquoted and stored at −20° C. For Totals—Dilute 1:33.3 in DMSO then 1:50 in Stimulation Buffer=6 μM in 2% DMSO (=3 μM B84 and 1% DMSO final). For Dose Response Curve -3 μL stock+7 μL DMSO+490 μL Stim Buffer=60 μM in 2% DMSO (=30 μM B84 and 1% DMSO final). (made fresh daily). Cell Line Human clone 3: HEK 293 cells stable transfected with human-SP9215 (GPR119)/pcDNA3.1 and also stable for pCRELuc, Stratagene. Cells are maintained in DMEM containing 10% FBS (Invitrogen #02-4006Dk, lot #1272302, heat inactivated), 1×MEM, 1× Pen/Strep, 0.1 mg/mL Hygromycin B, and 0.5 mg/mL G418. Cells are split 1:8 twice per week. cAMP Kit: LANCE™ cAMP 384 kit, Perkin Elmer #AD0263 Compound Dilutions • 1. Add DMSO to vials containing compounds to provide a 1 mg/mL solution. • 2. Dilute compounds to 60 μM in Stimulation buffer. Make ½ log dilutions into stimulation buffer containing 2% DMSO using the epMotion robot. 10 point dose response curve 1 nM to 30 μM. • 3. Compounds are run in quadruplicate, 2 separate dilutions for each, sets 1 and 1a. Assay Procedure • 1. The afternoon before the assay, replace the media in the flask of Human clone 3 cells with Optimem. (Gibco # 11058-021) NOTE: cells should be in culture 6-8 days. • 2. Next morning, pipet the cells gently off the flask using HBSS (at room temperature). • 3. Pellet the cells (1300 rpm, 7 minutes, room temperature) and resuspend in Stimulation Buffer at 2.5×10e6/mL (=5-8,000 cell/6 μL). Add 1:100 dilution of Alexa Fluor 647-anti cAMP antibody (provided in the kit) directly to the cell suspension. • 4. Into white 384-well plates (Matrix) add 6 μL of 2×B84, cmpds or stim buffer for nsb. They all contain 2% DMSO (=1% DMSO final). • Add 6 μL of the cell suspension to the wells. Incubate 30 minutes at room temperature. • For the std curve add 6 μL cAMP std solution diluted in Stim Buffer+2% DMSO according to kit directions (1000-3 nM). Add 6 μL of 1:100 anti-cAMP dilution in Stim Buffer to std wells. • Make Detection Mix according to kit instructions and incubate 15 minutes at room temperature. • Add 12 μL Detection Mix to all the wells.

| SMILES | IC50 [µM] |
| --- | --- |
| COC(=O)c1ccc(N2C(=O)C3(CCN(C(=O)c4ccc5c(c4)OCCCO5)CC3)C2c2ccc(Cl)cc2)cc1 (stereo not shown) | 1 |
| CC(C)OC(=O)N1CCC2(CC1)C(=O)N(C(c1ccccc1)c1ccccc1)C2c1ccccc1 (stereo not shown) | 2 |
| COC(=O)c1ccc(N2C(=O)C3(CCN(C(=O)c4cc(OC)c(OC)c(OC)c4)CC3)C2c2ccc(Cl)cc2)cc1 (stereo not shown) | 2.72 |
| COc1cccc(N2C(=O)C3(CCN(C(=O)c4cc(OC)c(OC)c(OC)c4)CC3)C2c2ccc(Cl)cc2)c1 (stereo not shown) | 3.8 |
| O=C(c1ccc2c(c1)OCCCO2)N1CCC2(CC1)C(=O)N(c1ccc([N+](=O)O)cc1)C2c1ccc(Cl)cc1 (stereo not shown) | 4.18 |
| COc1cc(C(=O)N2CCC3(CC2)C(=O)N(c2ccc(F)cc2)C3c2ccc(Cl)cc2)cc(OC)c1OC (stereo not shown) | 4.36 |
| COc1cc(C(=O)N2CCC3(CC2)C(=O)N(c2cccc(C(F)(F)F)c2)C3c2ccc(Cl)cc2)cc(OC)c1OC (stereo not shown) | 4.4 |
| O=C(c1ccc2c(c1)OCCCO2)N1CCC2(CC1)C(=O)N(c1ccc(C(F)(F)F)cc1)C2c1ccc(Cl)cc1 (stereo not shown) | 4.46 |
| C[C@H](NC(=O)N1CCC2(CC1)C(=O)N(c1ccc(F)cc1)C2c1ccc(F)cc1)c1ccccc1 (stereo partly shown) | 4.68 |

From US20080076751A1, “Azetidinone Derivatives and Methods of Use Thereof” (priority 2006, published 2008)
